Blank lines part the entries; values can stand above or below the compound they belong to. Numbered stars: 1 amine (or outer) side, 2 acyl side, 3 side chain; on linkers, the order of the positions; unused ones are H or OH. Bridge positions count the residues as written; N and C are the ends. Peptide text beside a SMILES is read from it. I, II: the chains in the order shown. Rhodamine110 = O=C1OC2(c3ccc(N[*:1])cc3Oc3cc(N[*:2])ccc32)c2ccccc21
Columns and labels:
Assay type in all cases: cell-based, human
granulocytes [1] = assay: aberrant enzyme activities in febrile children, granulocytes (Table 7)
monocytes [2] = assay: enzyme activity with fluorogenic substrate, normal monocytes (Table 3A)
granulocytes [3] = assay: enzyme activity with fluorogenic substrate, normal granulocytes (Table 3A)
lymphocytes [4] = assay: peptidase activity in leukemia and non-leukemia patients, lymphocytes (Table 6C); parameters: unit not given here
granulocytes [5] = assay: peptidase activity in leukemia and non-leukemia patients, granulocytes (Table 6C); parameters: unit not given here
[6] = system: metabolically active whole cell; assay: substrate panel in normals and HIV + patients, TB infection (Table 4); parameters: unit not given here
Procedure: A panel of assay compounds are assembled consisting of Ala-aminopeptidase and Lys-aminopeptidase, Dipeptidyl peptidase IV (Ala-Ala)2 rhodamine 110 and Cathepsin D to indicate possible TB infection in AIDS related cases.
A panel Of enzymatic substrates is performed consisting of Ala-aminopeptidase and Lys-aminopeptidase, Dipeptidyl peptidase IV (Ala-Ala)2 rhodamine 110 and Cathepsin D to indicate possible TB infection in AIDS related cases.

lymphocytes [7] = assay: aberrant enzyme activities in febrile children, lymphocytes (Table 7)
monocytes [8] = assay: aberrant enzyme activities in febrile children, monocytes (Table 7)
lymphocytes [9] = assay: enzyme activity with fluorogenic substrate, normal lymphocytes (Table 3A)

Compound: (Gly)2 Rho 110
- aberrant enzyme activity, GRANS (granulocytes [1]; P88 Enteritis): .smallcircle.
- aberrant enzyme activity, GRANS (granulocytes [1]; P89 Viral Stomatitis): .smallcircle.
- aberrant enzyme activity, GRANS (granulocytes [1]; P92 Adenitis): .smallcircle.
- aberrant enzyme activity, GRANS (granulocytes [1]; P97 Pyelonephritis): .smallcircle.
- aberrant enzyme activity, GRANS (granulocytes [1]; P102 UTI): .smallcircle.
- aberrant enzyme activity, GRANS (granulocytes [1]; P103 Viral Syndrome): .smallcircle.
- NORMAL LEUKOCYTE ENZYME ACTIVITY MONOS Mean (monocytes [2]): 61.47
- NORMAL LEUKOCYTE ENZYME ACTIVITY GRANS Mean (granulocytes [3]): 29.48
- enzyme activity, Lymphs (lymphocytes [4]; J4 11/21/91 acute leuk.): 14.02
- enzyme activity, Lymphs (lymphocytes [4]; J4 12/2/91 A L): 27.32
- enzyme activity, Lymphs (lymphocytes [4]; J4 12/3/91 acute leuk.): 31.51
- enzyme activity, Lymphs (lymphocytes [4]; J5 11/27/91 A M L): 28.36
- enzyme activity, Lymphs (lymphocytes [4]; J19 11/27/91 C L L): 11.39
- enzyme activity, Lymphs (lymphocytes [4]; J22 12/2/91 A M L): 24.50
- enzyme activity, Lymphs (lymphocytes [4]; J22 12/9/91 A M L): 27.14
- enzyme activity, Lymphs (lymphocytes [4]; N191 normal): 43.57
- enzyme activity, Lymphs (lymphocytes [4]; N192 normal): 37.47
- enzyme activity, Lymphs (lymphocytes [4]; N193 normal): 39.30
- enzyme activity, Lymphs (lymphocytes [4]; N194 normal): 39.76
- enzyme activity, Lymphs (lymphocytes [4]; N195 normal): 48.18
- enzyme activity, Lymphs (lymphocytes [4]; N197 normal): 42.96
- enzyme activity, Lymphs (lymphocytes [4]; N199 normal): 30.68
- enzyme activity, Lymphs (lymphocytes [4]; N200 normal): 42.28
- enzyme activity, Lymphs (lymphocytes [4]; N201 normal): 45.32
- enzyme activity, Lymphs (lymphocytes [4]; N202 normal): 44.55
- enzyme activity, Lymphs (lymphocytes [4]; N206 normal): 55.56
- enzyme activity, Lymphs (lymphocytes [4]; P68 tachycardia): 59.29
- enzyme activity, Lymphs (lymphocytes [4]; P69 pancreatic CA): 67.38
- enzyme activity, Lymphs (lymphocytes [4]; P70 cirrhosis/hemobilia): 54.84
- enzyme activity, Lymphs (lymphocytes [4]; P71 ac. pyelonephritis): 41.93
- enzyme activity, Grans (granulocytes [5]; J4 11/21/91 acute leuk.): 27.79
- enzyme activity, Grans (granulocytes [5]; J4 12/2/91 A L): 47.74
- enzyme activity, Grans (granulocytes [5]; J4 12/3/91 acute leuk.): 48.53
- enzyme activity, Grans (granulocytes [5]; J5 11/27/91 A M L): 56.33
- enzyme activity, Grans (granulocytes [5]; J19 11/27/91 C L L): 48.80
- enzyme activity, Grans (granulocytes [5]; J22 12/2/91 A M L): 34.02
- enzyme activity, Grans (granulocytes [5]; J22 12/9/91 A M L): 38.47
- enzyme activity, Grans (granulocytes [5]; N191 normal): 73.20
- enzyme activity, Grans (granulocytes [5]; N192 normal): 48.67
- enzyme activity, Grans (granulocytes [5]; N193 normal): 63.33
- enzyme activity, Grans (granulocytes [5]; N194 normal): 60.30
- enzyme activity, Grans (granulocytes [5]; N195 normal): 79.13
- enzyme activity, Grans (granulocytes [5]; N197 normal): 76.88
- enzyme activity, Grans (granulocytes [5]; N199 normal): 45.00
- enzyme activity, Grans (granulocytes [5]; N200 normal): 59.39
- enzyme activity, Grans (granulocytes [5]; N201 normal): 75.48
- enzyme activity, Grans (granulocytes [5]; N202 normal): 66.22
- enzyme activity, Grans (granulocytes [5]; N206 normal): 91.93
- enzyme activity, Grans (granulocytes [5]; P68 tachycardia): 100.00
- enzyme activity, Grans (granulocytes [5]; P69 pancreatic CA): 88.04
- enzyme activity, Grans (granulocytes [5]; P70 cirrhosis/hemobilia): 88.42
- enzyme activity, Grans (granulocytes [5]; P71 ac. pyelonephritis): 59.35
- MEAN DELTA FL ([6]; HIV + PATIENTS): 62.4
- MEAN DELTA FL ([6]; NORMALS): 101.1
- aberrant enzyme activity, LYMPHS (lymphocytes [7]; P88 Enteritis): .smallcircle.
- aberrant enzyme activity, LYMPHS (lymphocytes [7]; P89 Viral Stomatitis): - (>0.25 Decrease over normal range)
- aberrant enzyme activity, LYMPHS (lymphocytes [7]; P92 Adenitis): .smallcircle.
- aberrant enzyme activity, LYMPHS (lymphocytes [7]; P97 Pyelonephritis): .smallcircle.
- aberrant enzyme activity, LYMPHS (lymphocytes [7]; P102 UTI): .smallcircle.
- aberrant enzyme activity, LYMPHS (lymphocytes [7]; P103 Viral Syndrome): .smallcircle.
- aberrant enzyme activity, MONOS (monocytes [8]; P88 Enteritis): .smallcircle.
- aberrant enzyme activity, MONOS (monocytes [8]; P89 Viral Stomatitis): .smallcircle.
- aberrant enzyme activity, MONOS (monocytes [8]; P92 Adenitis): .smallcircle.
- aberrant enzyme activity, MONOS (monocytes [8]; P97 Pyelonephritis): + (>0.25 Increase over normal range)
- aberrant enzyme activity, MONOS (monocytes [8]; P103 Viral Syndrome): .smallcircle.
- NORMAL LEUKOCYTE ENZYME ACTIVITY LYMPHS Mean (lymphocytes [9]): 18.18

Compound: C[C@H](NC(=O)CNC(=O)[C@H](Cc1ccccc1)NC(=O)CN)C(=O)Nc1ccc2c(c1)Oc1cc(NC(=O)[C@H](C)NC(=O)CNC(=O)[C@H](Cc3ccccc3)NC(=O)CN)ccc1C21OC(=O)c2ccccc21 [GFGA, (Gly-Phe-Gly-Ala)2 Rho 110] (I: H-GFGA / II: H-GFGA; linker I:C-II:C via Rhodamine110)
- aberrant enzyme activity, GRANS (granulocytes [1]; P88 Enteritis): .smallcircle.
- aberrant enzyme activity, GRANS (granulocytes [1]; P89 Viral Stomatitis): .smallcircle.
- aberrant enzyme activity, GRANS (granulocytes [1]; P92 Adenitis): .smallcircle.
- aberrant enzyme activity, GRANS (granulocytes [1]; P97 Pyelonephritis): .smallcircle.
- aberrant enzyme activity, GRANS (granulocytes [1]; P103 Viral Syndrome): .smallcircle.
- NORMAL LEUKOCYTE ENZYME ACTIVITY MONOS Mean (monocytes [2]): 1.01
- NORMAL LEUKOCYTE ENZYME ACTIVITY GRANS Mean (granulocytes [3]): 1.00
- aberrant enzyme activity, LYMPHS (lymphocytes [7]; P88 Enteritis): .smallcircle.
- aberrant enzyme activity, LYMPHS (lymphocytes [7]; P89 Viral Stomatitis): .smallcircle.
- aberrant enzyme activity, LYMPHS (lymphocytes [7]; P92 Adenitis): .smallcircle.
- aberrant enzyme activity, LYMPHS (lymphocytes [7]; P97 Pyelonephritis): .smallcircle.
- aberrant enzyme activity, LYMPHS (lymphocytes [7]; P103 Viral Syndrome): .smallcircle.
- aberrant enzyme activity, MONOS (monocytes [8]; P88 Enteritis): .smallcircle.
- aberrant enzyme activity, MONOS (monocytes [8]; P89 Viral Stomatitis): .smallcircle.
- aberrant enzyme activity, MONOS (monocytes [8]; P92 Adenitis): .smallcircle.
- aberrant enzyme activity, MONOS (monocytes [8]; P97 Pyelonephritis): .smallcircle.
- aberrant enzyme activity, MONOS (monocytes [8]; P103 Viral Syndrome): .smallcircle.
- NORMAL LEUKOCYTE ENZYME ACTIVITY LYMPHS Mean (lymphocytes [9]): 0.36

- aberrant enzyme activity, GRANS (granulocytes [1]; P92 Adenitis): - (>0.25 Decrease over normal range)
- aberrant enzyme activity, GRANS (granulocytes [1]; P97 Pyelonephritis): .smallcircle.
- aberrant enzyme activity, GRANS (granulocytes [1]; P103 Viral Syndrome): .smallcircle.
- NORMAL LEUKOCYTE ENZYME ACTIVITY MONOS Mean (monocytes [2]): 71.45
- NORMAL LEUKOCYTE ENZYME ACTIVITY GRANS Mean (granulocytes [3]): 80.16
- aberrant enzyme activity, LYMPHS (lymphocytes [7]; P92 Adenitis): - (>0.25 Decrease over normal range)
- aberrant enzyme activity, LYMPHS (lymphocytes [7]; P97 Pyelonephritis): .smallcircle.
- aberrant enzyme activity, LYMPHS (lymphocytes [7]; P103 Viral Syndrome): .smallcircle.
- aberrant enzyme activity, MONOS (monocytes [8]; P92 Adenitis): - (>0.25 Decrease over normal range)
- aberrant enzyme activity, MONOS (monocytes [8]; P97 Pyelonephritis): .smallcircle.
- aberrant enzyme activity, MONOS (monocytes [8]; P103 Viral Syndrome): .smallcircle.
- NORMAL LEUKOCYTE ENZYME ACTIVITY LYMPHS Mean (lymphocytes [9]): 30.99
Compound: C[C@@H](O)[C@H](NC(=O)OCc1ccccc1)C(=O)N1CCC[C@H]1C(=O)Nc1ccc2c(c1)Oc1cc(NC(=O)[C@@H]3CCCN3C(=O)[C@@H](NC(=O)OCc3ccccc3)[C@@H](C)O)ccc1C21OC(=O)c2ccccc21 [Z-TP 8.7-M]
